Measured values from publication PMC12405493, “Selective ubiquitination of drug-like small molecules by the ubiquitin ligase HUWE1” (Nature Communications, 2025).

Experiments:
colorectal cancer cells = test system: colorectal cancer cells; parameters: method as in PMID 25253726; conditions: cited from earlier work
HUWE1^HECT [1] = molecular target: T1, HUWE1^HECT (Homo sapiens, UniProt Q7Z6Z7); test: HUWE1^HECT multi-turnover ubiquitination reactions (fluorescent Ub tracer, SDS-PAGE); type: biochemical; conditions: E2 UBE2L3, varying concentrations
T1 construct: the isolated HECT domain of HUWE1 (HUWE1^HECT); made in house
T1 sequence (Q7Z6Z7 4038-4374 limits assumed): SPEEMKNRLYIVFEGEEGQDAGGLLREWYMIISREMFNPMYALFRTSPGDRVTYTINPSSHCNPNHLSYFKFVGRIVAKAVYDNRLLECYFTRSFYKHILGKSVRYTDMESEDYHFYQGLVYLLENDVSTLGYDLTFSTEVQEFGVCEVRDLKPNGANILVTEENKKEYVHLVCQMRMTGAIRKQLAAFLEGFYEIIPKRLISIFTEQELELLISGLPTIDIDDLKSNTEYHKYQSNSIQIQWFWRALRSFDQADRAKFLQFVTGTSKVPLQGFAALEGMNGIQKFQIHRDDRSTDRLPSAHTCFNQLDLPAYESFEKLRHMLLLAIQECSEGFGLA
Description: (§1) HUWE1^HECT multi-turnover ubiquitination reactions were performed for 30 minutes (unless stated otherwise) with 200 nM UBA1, 5 μM UBE2L3 or UBE2D3 (as specified), 1 μM HUWE1^HECT and 30 μM Ub in 25 mM HEPES (pH 7.5), 100 mM NaCl, 3 mM MgCl2, and 0.5 mM TCEP. HUWE1^FL multi-turnover ubiquitination reactions included 50 nM UBA1, 2.5 μM UBE2L3, 0.05 μM HUWE1^FL, 0.5 μM MCL1 (or 0.5 μM H2B or 1 μM FOXP3) and 20 μM Ub in 20 mM HEPES (pH 7.5), 100 mM NaCl, 3 mM MgCl2, and 0.5 mM TCEP. All multi-turnover reactions were started by the addition of 1 mM ATP, incubated at 30 °C, quenched with SDS-loading dye. If not stated otherwise, HUWE1^FLautoubiquitination reactions were incubated for 20 minutes. Substrate ubiquitination reactions with MCL1 or H2B were incubated for 10 and 20 min, respectively; those with FOXP3 for 30 min. Those reactions that were monitored by fluorescence contained a fluorescent Ub tracer (IRDye 800CW maleimide; LI-COR)[55] and were monitored using an Odyssey CLx scanner (LI-COR), followed by Coomassie staining. In the fluorescence images, only those marker bands are labeled (in kDa) that are visible by fluorescence; all marker bands are labeled in the Coomassie-stained images. Statistical analyses were performed with Prism 9 v.9.3.1 (GraphPad).

other HECT domains = test system: other HECT domains; parameters: method as in PMID 25253726; conditions: in vitro; cited from earlier work
HUWE1^HECT [2] = test system: HUWE1^HECT; parameters: method as in PMID 25253726; conditions: in vitro; read-out: IC50 of HUWE1^HECT inhibition; cited from earlier work
[3] = molecular target: T2, vinylthioether-linked HUWE1^HECT-Ub complex (Homo sapiens, UniProt Q7Z6Z7); test: Differential scanning fluorimetry (DSF) with HUWE1^HECT~Ub proxy; type: binding; conditions: 10 μM protein
T2 construct: The preparation of the vinylthioether-linked HUWE1^HECT-Ub complex was also previously described; made in house; host or cells: bacteria (components)
Description: DSF was performed in 25 mM HEPES (pH 7.5), 100 mM NaCl, 1 mM TCEP and 0.4% (v/v) DMSO, using a CFX96 Touch Real-Time PCR Detection System (BioRad). 10 μM HUWE1^HECT and HUWE1^HECT-Ub, respectively, at a sample volume of 25 μL were denatured by a linear 25–95 °C gradient over 120 min in a presence of 10 x SYPRO Orange (Invitrogen). Tm-values were determined as the first derivative of the fluorescence curves, using CFX Maestro™ v.1.1 (Bio-Rad). Melting curves were plotted as normalized -d(fluorescence)/dt with Prism v.9.3.1 (GraphPad).

[4] = molecular target: T3, HUWE1^FL (substrate MCL1) (Homo sapiens, UniProt Q7Z6Z7); test: HUWE1^FL-driven MCL1 ubiquitination reactions; type: biochemical; conditions: varying concentrations
T3 construct: made in house; host or cells: HEK293T (transient transfection, anti-Flag purification, SEC)
Description: as §1

T3 sequence (Q7Z6Z7 whole entry): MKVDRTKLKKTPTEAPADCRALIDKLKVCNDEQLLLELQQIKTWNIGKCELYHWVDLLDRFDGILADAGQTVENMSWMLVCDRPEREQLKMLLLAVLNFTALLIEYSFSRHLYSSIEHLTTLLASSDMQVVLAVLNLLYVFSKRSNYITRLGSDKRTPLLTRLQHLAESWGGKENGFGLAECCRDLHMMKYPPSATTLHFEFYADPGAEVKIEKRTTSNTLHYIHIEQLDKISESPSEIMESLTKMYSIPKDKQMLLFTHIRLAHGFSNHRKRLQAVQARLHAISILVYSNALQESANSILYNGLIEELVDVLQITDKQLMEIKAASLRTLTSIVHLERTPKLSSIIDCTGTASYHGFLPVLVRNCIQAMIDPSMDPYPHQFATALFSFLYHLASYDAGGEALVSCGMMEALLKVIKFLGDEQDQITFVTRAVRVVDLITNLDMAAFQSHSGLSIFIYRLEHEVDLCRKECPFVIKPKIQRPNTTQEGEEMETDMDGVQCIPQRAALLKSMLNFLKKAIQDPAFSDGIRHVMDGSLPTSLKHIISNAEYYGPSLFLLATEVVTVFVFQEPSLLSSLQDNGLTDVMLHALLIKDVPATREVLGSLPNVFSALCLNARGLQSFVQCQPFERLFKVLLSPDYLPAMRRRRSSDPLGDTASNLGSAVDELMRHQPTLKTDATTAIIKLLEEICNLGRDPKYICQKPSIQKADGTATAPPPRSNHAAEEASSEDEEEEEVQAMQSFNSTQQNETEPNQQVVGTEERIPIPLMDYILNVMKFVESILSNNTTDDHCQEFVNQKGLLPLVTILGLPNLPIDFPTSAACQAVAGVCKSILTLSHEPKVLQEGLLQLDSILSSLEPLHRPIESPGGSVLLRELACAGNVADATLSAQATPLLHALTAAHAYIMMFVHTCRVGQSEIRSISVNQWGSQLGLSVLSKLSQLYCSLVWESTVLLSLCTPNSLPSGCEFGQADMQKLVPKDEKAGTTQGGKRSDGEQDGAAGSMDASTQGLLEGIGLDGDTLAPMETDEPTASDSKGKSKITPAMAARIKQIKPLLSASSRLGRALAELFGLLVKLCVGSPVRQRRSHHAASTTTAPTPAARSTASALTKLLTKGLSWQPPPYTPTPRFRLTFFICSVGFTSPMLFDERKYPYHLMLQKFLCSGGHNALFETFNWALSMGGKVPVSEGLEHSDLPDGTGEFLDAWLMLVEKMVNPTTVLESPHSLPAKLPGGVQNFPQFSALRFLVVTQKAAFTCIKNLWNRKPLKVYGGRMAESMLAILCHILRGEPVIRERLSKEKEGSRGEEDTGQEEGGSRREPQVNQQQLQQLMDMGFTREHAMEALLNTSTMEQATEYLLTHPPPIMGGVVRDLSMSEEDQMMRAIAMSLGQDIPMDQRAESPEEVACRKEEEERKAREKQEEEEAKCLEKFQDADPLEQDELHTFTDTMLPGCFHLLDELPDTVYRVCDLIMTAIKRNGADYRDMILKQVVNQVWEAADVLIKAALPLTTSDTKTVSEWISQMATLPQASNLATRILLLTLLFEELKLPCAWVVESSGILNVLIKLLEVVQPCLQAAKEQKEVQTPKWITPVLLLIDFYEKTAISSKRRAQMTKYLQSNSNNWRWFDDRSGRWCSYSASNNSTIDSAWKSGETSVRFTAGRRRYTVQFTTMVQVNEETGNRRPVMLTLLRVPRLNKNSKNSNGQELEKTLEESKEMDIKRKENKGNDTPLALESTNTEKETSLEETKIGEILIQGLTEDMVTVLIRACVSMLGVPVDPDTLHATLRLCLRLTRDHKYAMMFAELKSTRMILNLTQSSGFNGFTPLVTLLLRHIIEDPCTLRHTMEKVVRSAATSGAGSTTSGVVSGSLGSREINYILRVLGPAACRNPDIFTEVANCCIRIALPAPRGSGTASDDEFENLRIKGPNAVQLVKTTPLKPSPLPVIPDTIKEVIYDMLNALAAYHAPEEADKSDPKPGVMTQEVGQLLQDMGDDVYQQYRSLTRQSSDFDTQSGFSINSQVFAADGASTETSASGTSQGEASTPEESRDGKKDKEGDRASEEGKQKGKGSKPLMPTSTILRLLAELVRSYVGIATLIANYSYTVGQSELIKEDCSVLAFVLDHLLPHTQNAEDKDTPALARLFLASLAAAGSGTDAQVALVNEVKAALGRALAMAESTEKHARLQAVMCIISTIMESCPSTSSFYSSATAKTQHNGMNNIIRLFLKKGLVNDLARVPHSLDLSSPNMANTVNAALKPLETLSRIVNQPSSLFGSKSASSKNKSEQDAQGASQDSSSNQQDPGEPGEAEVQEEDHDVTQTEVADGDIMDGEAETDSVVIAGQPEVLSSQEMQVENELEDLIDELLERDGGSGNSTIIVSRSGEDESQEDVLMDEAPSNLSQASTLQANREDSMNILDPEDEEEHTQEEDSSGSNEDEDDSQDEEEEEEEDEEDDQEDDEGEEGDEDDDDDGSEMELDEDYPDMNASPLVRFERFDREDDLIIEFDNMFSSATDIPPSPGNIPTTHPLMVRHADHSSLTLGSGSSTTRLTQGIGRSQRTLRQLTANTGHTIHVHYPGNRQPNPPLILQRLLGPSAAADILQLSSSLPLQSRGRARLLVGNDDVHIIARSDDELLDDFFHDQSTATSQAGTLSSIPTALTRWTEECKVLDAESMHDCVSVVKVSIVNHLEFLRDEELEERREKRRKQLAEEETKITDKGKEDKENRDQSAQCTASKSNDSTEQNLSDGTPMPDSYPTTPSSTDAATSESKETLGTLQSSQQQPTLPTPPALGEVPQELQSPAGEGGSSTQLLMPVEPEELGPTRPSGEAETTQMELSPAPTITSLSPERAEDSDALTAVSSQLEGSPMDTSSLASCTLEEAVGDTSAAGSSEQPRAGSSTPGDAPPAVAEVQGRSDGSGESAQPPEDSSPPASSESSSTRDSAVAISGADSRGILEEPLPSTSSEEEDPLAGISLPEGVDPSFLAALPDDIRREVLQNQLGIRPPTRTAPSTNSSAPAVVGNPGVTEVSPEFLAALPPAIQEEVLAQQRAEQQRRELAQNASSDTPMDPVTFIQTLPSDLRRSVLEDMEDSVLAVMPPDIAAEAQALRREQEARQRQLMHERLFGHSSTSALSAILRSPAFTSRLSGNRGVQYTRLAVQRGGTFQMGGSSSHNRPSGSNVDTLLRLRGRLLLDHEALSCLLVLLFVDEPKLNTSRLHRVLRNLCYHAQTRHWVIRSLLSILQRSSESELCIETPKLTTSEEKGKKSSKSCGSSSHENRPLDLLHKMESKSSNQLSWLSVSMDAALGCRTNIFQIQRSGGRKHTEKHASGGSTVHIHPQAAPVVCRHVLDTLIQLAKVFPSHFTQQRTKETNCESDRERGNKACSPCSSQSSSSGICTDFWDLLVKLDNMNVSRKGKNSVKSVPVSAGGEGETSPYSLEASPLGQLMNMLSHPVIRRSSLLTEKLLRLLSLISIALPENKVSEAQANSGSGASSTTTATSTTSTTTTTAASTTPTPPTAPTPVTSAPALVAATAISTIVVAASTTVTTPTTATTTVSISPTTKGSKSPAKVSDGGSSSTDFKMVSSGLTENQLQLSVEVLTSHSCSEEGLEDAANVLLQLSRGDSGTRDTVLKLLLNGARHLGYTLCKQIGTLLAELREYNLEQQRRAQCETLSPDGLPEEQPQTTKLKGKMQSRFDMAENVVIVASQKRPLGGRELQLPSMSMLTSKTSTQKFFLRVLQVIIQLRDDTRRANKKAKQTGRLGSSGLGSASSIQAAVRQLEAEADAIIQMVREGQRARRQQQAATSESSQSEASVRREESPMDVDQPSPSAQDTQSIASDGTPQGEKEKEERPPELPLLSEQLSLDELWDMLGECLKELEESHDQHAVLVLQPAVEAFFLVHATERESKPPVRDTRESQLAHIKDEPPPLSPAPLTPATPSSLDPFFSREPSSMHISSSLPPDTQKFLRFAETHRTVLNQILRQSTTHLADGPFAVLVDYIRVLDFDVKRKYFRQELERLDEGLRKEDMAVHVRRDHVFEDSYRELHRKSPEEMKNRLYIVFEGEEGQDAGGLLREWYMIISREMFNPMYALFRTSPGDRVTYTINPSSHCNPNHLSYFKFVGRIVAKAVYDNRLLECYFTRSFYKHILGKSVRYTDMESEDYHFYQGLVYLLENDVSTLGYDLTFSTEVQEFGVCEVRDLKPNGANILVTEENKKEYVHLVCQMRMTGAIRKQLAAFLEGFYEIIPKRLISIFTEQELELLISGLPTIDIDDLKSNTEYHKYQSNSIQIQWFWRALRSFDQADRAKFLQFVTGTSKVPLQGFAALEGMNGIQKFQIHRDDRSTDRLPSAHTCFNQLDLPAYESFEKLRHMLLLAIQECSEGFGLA

Cc1c(C(=O)Nc2ccc(CN)cc2)ncnc1N1CCC(C#N)(c2ccccc2)CC1 [BI8622]
Cytotoxic effects (colorectal cancer cells): selective cytotoxic effects | Inhibition of HUWE1^HECT-driven ubiquitination (HUWE1^HECT [1]): inhibit ubiquitination dose-dependently in the low-micromolar concentration range | IC50 (other HECT domains): > 50 µM | IC50 (HUWE1^HECT [2]): 3.1 µM | Interaction with HUWE1^HECT-Ub by DSF [3]: no interactions between HUWE1^HECT-Ub and the inhibitors could be detected | Inhibition of HUWE1^FL-driven MCL1 ubiquitination [4]: inhibit the protein ubiquitination activity of the ligase in a dose-dependent manner

NCc1cccc(CNc2ncnc3c(N4CCN(Cc5ccccc5)CC4)ncnc23)c1 [BI8626]
Cytotoxic effects (colorectal cancer cells): selective cytotoxic effects | Inhibition of HUWE1^HECT-driven ubiquitination (HUWE1^HECT [1]): inhibit ubiquitination dose-dependently in the low-micromolar concentration range | IC50 (other HECT domains): > 50 µM | IC50 (HUWE1^HECT [2]): 0.9 µM | Interaction with HUWE1^HECT-Ub by DSF [3]: no interactions between HUWE1^HECT-Ub and the inhibitors could be detected | Inhibition of HUWE1^FL-driven MCL1 ubiquitination [4]: inhibit the protein ubiquitination activity of the ligase in a dose-dependent manner
